Source: patent US8778984B2, “Aldosterone synthase inhibitor” (Eli Lilly and Company, priority 2011, dated 2014)
One block for each molecule: values may come before it.

Tests used:
[1] = tested on: testosterone production from H295R cells; assay: cells; type: cell-based, human; conditions: Homo sapiens, NCI-H295R, 48 h, read-out: Testosterone IC50 (μM)
Experimental: (§1) The human adrenocarcinoma cell line H295R is used to monitor the production of testosterone and estradiol in vitro. […] Various concentrations of test compounds in 1:3 dilution increments are added to the cell culture medium. After incubation for 48 hours, 100 μl culture medium is collected and d5-estradiol and d3-testosterone are added as ISs for estradiol and testosterone respectively.
(§2) An equal volume of sodium carbonate/sodium bicarbonate buffer (0.5 mol/L, pH 9.4) is added to the samples followed by freshly prepared dansyl chloride solution (50 μl, 20 mg/mL). Samples are mixed and incubated for 60 min at 60° C. The samples are then extracted 3× with EtOAc ([…]) using the FX, combining the organic layers in a new deep-well 96-well plate. The solvent is then dried in a GeneVac HT-4 or under nitrogen. The FX is used to reconstitute the samples in 50% MeOH/water ([…]) and the plates are heat-sealed.
(§3) A 40 μl aliquot of the sample is injected and a gradient from 20-100% MeOH in 0.95 min is initiated. An ABI QTRAP 4000 tandem mass spectrometer is used for MS/MS analysis in the positive ion mode. […] These peaks are separately integrated to give the peak areas. The area ratios of testosterone/IS and estradiol/IS are used to determine testosterone and estradiol concentrations by comparison to their respective standard curves. The detection limits for testosterone and estradiol are 0.1 ng/mL and 0.01 ng/mL respectively.

[2] = tested on: estradiol production from H295R cells; assay: cells; type: cell-based, human; conditions: Homo sapiens, NCI-H295R, 48 h, read-out: Estradiol IC50 (μM)
Experimental: as §1, §2, §3

human cyp11B2 = molecular target: T1, human cyp11B2 (Homo sapiens, UniProt P19099); assay: Aldosterone Synthase Inhibitor Assay (V79-hcyp11B2 cells, aldosterone by LC-MS); type: cell-based; conditions: aldosterone production from 1 μM DOC, 24 hours incubation, geometric means, separate experiments
T1 construct: expressed in transfected cells
T1 sequence (P19099 25-503): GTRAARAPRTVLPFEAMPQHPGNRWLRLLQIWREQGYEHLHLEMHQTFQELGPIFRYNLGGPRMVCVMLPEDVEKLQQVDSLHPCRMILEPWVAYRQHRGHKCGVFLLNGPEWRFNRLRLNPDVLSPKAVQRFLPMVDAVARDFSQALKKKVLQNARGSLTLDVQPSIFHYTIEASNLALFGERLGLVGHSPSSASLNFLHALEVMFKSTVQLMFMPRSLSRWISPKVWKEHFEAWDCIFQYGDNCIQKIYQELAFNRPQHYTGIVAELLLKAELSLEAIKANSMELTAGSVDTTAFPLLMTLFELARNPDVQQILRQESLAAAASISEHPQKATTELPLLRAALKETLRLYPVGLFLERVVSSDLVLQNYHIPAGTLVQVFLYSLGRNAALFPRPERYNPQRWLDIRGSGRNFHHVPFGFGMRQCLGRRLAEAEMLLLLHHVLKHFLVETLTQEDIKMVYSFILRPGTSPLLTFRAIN
Experimental: Chinese hamster fibroblast cells (V79, ATCC™) constitutively expressing human cyp11B2 are established by transfection with a mammalian expression vector harboring the human cyp11B2 cDNA under CMV promoter and a neomycin antibiotic resistant gene for selection in mammalian cells. V79 cells are transfected in T225 cm^2 flasks with the lipofectamine transfection reagent and the human cyp11B2 cDNA. Positive clones are selected with the selection antibiotic geneticin at 1 mg/mL.
Aldosterone production from transfected cells is initiated by the addition of 1 μM DOC in the medium. After 24 hours incubation, 100 μL cell culture medium is collected and aldosterone concentration in the medium is determined using a liquid chromatography-mass spectrometry (LC-MS) method. […] The wells are then extracted 3× with EtOAc (150 μl) using the FX, combining the organic layers in a new 96-well plate. The solvent is dried in a GeneVac HT-4 or under nitrogen. […] A 25 μl aliquot of the sample is injected and a gradient from 20-100% ACN+0.1% formic acid (FA) in 1 min is initiated. Aldosterone elutes at 0.7 min. Starting conditions are held for 1 minute to re-equilibrate the column. An ABI 4000 tandem mass spectrometer is used for MS/MS analysis in the negative ion mode. […] The area under the peak from each transition is added together to comprise the signal from aldosterone and IS, respectively. […] The detection limit for aldosterone is […].
DOC and various concentrations of test compounds in 1:3 dilution increments are added to the cell culture medium. After 24 hours incubation, 100 μl of cell medium are collected and aldosterone concentration determined as described above. Data are fit to a 4 parameter-fit logistics curve to determine IC50 values.

[3] = tested on: aldosterone production in rats; assay: Inhibition of Aldosterone Synthase in Rats (rat sodium-deficiency diet model); type: in vivo; conditions: Example 1 10.0 mg/kg, Example 49 30.0 mg/kg, Fadrozole 1.0 mg/kg
Experimental: The effect of compounds on aldosterone production in rats is assessed using the rat sodium-deficiency diet model. […] At 3 hours post dose rats are bled (˜0.5 mL) from the ocular orbit under isoflurane anesthesia. At 6 hours post-dose the rats are euthanized with CO2 and bled by cardiac puncture. Blood samples are clotted at least 30 minutes and serum is prepared and stored at approximately −80° C. until assayed. Aldosterone, steroids, and compound exposure are analyzed by mass spectroscopy.

Compound: N#Cc1ccc([C@H]2CCc3cncn32)c(F)c1 [Novartis LCI699, reference compound]
- IC50 [1]: 5.01 µM
- IC50 [2]: 0.123 µM

- IC50 (human cyp11B2): 0.005 µM
Compound: N#Cc1ccc(C2CCCc3[nH]ncc32)cc1F (racemic) [Example 59, (+/−)-2-Fluoro-4-(4,5,6,7-tetrahydro-1H-indazol-4-yl)benzonitrile]

Compound: N#Cc1ccc(C2CCCc3cncn32)cc1 (stereo not drawn) [Fadrozole, fadrozole, reference compound]
- % Inhibition 3 hrs ([3]; inhibition of aldosterone vs vehicle, 3 hrs post oral dose): 64.4%
- % Inhibition 6 hrs ([3]; inhibition of aldosterone vs vehicle, 6 hrs post oral dose): 55.2%
- Aldosterone (pg/mL) 3 hrs ([3]; serum, 3 hrs post oral dose, rat Na-deficient diet model): 669.8 pg/mL
- Aldosterone (pg/mL) 6 hrs ([3]; serum, 6 hrs post oral dose, rat Na-deficient diet model): 1144.2 pg/mL

- IC50 (human cyp11B2): 0.154 µM
Compound: Cc1ccc(C2CCCc3n[nH]cc32)cc1 (single isomer, unassigned; isomer 2) [Example 54, 4-(p-Tolyl)-4,5,6,7-tetrahydro-2H-indazole-isomer 2]

- IC50 (human cyp11B2): 0.157 µM
Compound: FC(F)(F)c1ccc(C2CCc3[nH]ncc32)cc1 (racemic) [Example 18, (+/−)-4-(4-Trifluoro-methylphenyl)-1,4,5,6-tetrahydrocyclopenta[c] pyrazole]
